“Also recorded” adds a separate entry of the source. Where two headings read alike, the source gives them in different places.
Legend:
[1] = Stability in fresh human lung tissue in vitro, with and without esterase inhibitor dichlorvos; type: in vitro ADME; conditions: 37°C
Description: Incubations were performed in the presence and absence of dichlorvos (1 mg/mL). Over 24 hours, samples of 1.0 mL tissue-free supernatant were taken and immediately stored at -20°C until analysis. The incubation medium was replenished by buffer which was pre-temperated to 37°C. In case of incubations with dichlorvos the medium used for replenishment contained the esterase inhibitor.
(§1) Samples of 1.0 mL (tissue desorption/stability) or 2.0 mL (tissue adsorption) were mixed with 0.1 mL internal standard solution and extracted twice with 3 mL diethylether for 30 min, using a roller mixer, followed by centrifugation (20°C) for 5 min. The organic phase was separated and evaporated to dryness under a gentle stream of nitrogen at 25°C. The resulting residue was reconstituted in 0.2 mL mobile phase. […] Linearity was given from 10–500 ng/mL glucocorticoid, coefficients of correlation of the calibration curves were at least 0.99.
The HPLC system was a Waters HPLC (Milford, MA) consisting of a 1525 binary pump, an 717plus autosampler and 2487 dual wavelength absorbance detector set at the detection wavelength of 254 nm. Data collection and integration were accomplished using Breeze™ software version 3.2. Analysis was performed on a Symmetry C18 column (150 × 4.6 mm I.D., 5 μm particle size, Waters, MA). […] The lower limit of quantitation was 10 ng/mL for all glucocorticoids except ciclesonide (20 ng/mL).

[2] = target: T1, human lung glucocorticoid receptor (Homo sapiens, UniProt P04150); experiment: Kinetic receptor binding experiments (association and dissociation kinetics) in human lung cytosol; parameters: we isolated human lung glucocorticoid receptors from human lung tissue; from tissue; host or cells: human lung tissue cytosol (105,000 x g supernatant); conditions: 20°C, mean and mean deviation of the mean, 3-7 experiments
T1 sequence (P04150 1-777): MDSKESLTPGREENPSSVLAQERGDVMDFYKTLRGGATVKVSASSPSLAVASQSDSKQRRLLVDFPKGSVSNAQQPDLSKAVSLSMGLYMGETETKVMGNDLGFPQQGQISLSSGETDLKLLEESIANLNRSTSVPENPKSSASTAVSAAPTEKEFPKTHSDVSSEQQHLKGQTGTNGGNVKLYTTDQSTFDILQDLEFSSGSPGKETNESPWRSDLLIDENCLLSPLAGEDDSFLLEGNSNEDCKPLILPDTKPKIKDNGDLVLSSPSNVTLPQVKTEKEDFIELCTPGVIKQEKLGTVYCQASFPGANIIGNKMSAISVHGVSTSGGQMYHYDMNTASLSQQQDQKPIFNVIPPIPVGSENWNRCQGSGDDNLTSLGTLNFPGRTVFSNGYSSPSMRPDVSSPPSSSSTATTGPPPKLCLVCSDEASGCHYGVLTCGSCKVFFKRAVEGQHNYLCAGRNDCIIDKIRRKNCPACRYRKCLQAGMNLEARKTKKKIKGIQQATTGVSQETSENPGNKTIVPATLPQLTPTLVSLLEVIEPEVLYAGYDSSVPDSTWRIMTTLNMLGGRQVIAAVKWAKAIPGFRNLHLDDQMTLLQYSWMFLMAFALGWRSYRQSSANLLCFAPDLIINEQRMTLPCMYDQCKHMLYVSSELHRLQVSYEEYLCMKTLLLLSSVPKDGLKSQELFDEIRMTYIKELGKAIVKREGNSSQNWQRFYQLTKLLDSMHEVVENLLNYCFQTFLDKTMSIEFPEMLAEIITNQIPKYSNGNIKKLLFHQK
Description: Human lung tissue was deep frozen immediately after resection and stored in liquid nitrogen. Frozen tissue was pulverized and homogenized in three aliquots buffer solution A with an Ultra Turrax mixer (Janke and Kunkel, Staufen, Germany) in an ice bath. […] The cytosol was stored in aliquots at -70°C.
The receptor binding experiments were performed according to the procedure described earlier [1] based on [7-9].
The assay for total binding (Bt in [mol/L]) was carried out accordingly, but the unlabelled glucocorticoid was replaced by buffer solution G. To determine the total [^3H]-glucocorticoid concentration (T), 20 μL of the mixture were used for scintillation counting. […]
The Zt-values were plotted against time t and a linear regression was performed. The slope of the straight line (kAss = k1) and the coefficient of correlation r were calculated based on a minimum of four data points. […]
The Bs,t-values were plotted semi-logarithmical against time t and a linear regression was performed. The slope of the straight line (kDiss = k-1) and the coefficient of correlation r were calculated based on a minimum of six data points.
Equilibrium dissociation constant (KD) was calculated for each glucocorticoid based on association and dissociation rate constants:

[3] = Control experiment for non-specific adsorption to glass incubation vials (buffer without tissue); type: physicochemical; conditions: 480 min at 37°C, Krebs-Ringer-HEPES buffer; for non-specific binding to glass incubation vials: no tissue
Description: Lung tissue was washed in Krebs-Ringer-HEPES buffer (pH 7.4) and sliced into pieces of 1 mm^3. For each binding experiment approximately 0.5 g of lung tissue was used. Adsorption of glucocorticoids (0.3 μg/mL) to human lung tissue was determined as described earlier. Briefly, lung tissue pieces were suspended under gentle shaking for 1 h at 37°C in 20 ml Krebs-Ringer-HEPES buffer containing 0.3 μg/ml of the glucocorticoid. 2.0 mL samples were taken and stored at -20°C until analysis. The volume withdrawn was replaced with fresh buffer of 37°C. Only glass lab ware was used for these experiments to avoid any non-specific binding effects of the highly lipophilic compounds to plastic material. […]
as §1
(§2) The HPLC system was a Waters HPLC (Milford, MA) consisting of a 1525 binary pump, an 717plus autosampler and 2487 dual wavelength absorbance detector set at the detection wavelength of 254 nm. Data collection and integration were accomplished using Breeze™ software version 3.2. Analysis was performed on a Symmetry C18 column (150 × 4.6 mm I.D., 5 μm particle size, Waters, MA). Typically, 20 μL of sample were injected and separated at a flow rate of 1 mL/min. Gradient elution was performed using water (containing 0.2 % (v/v) acetic acid) and ACN, starting at 60:40 (v/v) water/ACN increasing linearly to 29:71 (v/v) water/ACN by 30 min. The assay was accurate and reproducible. The lower limit of quantitation was 10 ng/mL for all glucocorticoids except ciclesonide (20 ng/mL).

[4] = Adsorption of glucocorticoids to human lung tissue; type: in vitro ADME; conditions: 37°C; for tissue binding (concentration in human lung tissue) after adsorption: 60 min incubation, 0.3 μg/mL glucocorticoid in buffer, before incubation in plasma
Description: Lung tissue was washed in Krebs-Ringer-HEPES buffer (pH 7.4) and sliced into pieces of 1 mm^3. For each binding experiment approximately 0.5 g of lung tissue was used. Adsorption of glucocorticoids (0.3 μg/mL) to human lung tissue was determined as described earlier. Briefly, lung tissue pieces were suspended under gentle shaking for 1 h at 37°C in 20 ml Krebs-Ringer-HEPES buffer containing 0.3 μg/ml of the glucocorticoid. 2.0 mL samples were taken and stored at -20°C until analysis. The volume withdrawn was replaced with fresh buffer of 37°C. Only glass lab ware was used for these experiments to avoid any non-specific binding effects of the highly lipophilic compounds to plastic material. For control, blank samples with glucocorticoid-containing buffer, but no tissue, were incubated under the same experimental conditions (1 h at 37°C, in Krebs-Ringer-HEPES buffer) and analyzed for non-specific adsorption of the glucocorticoids to the glass tubes.
as §1, §2

[5] = Desorption of glucocorticoids from human lung tissue into human plasma; type: in vitro ADME; conditions: for concentration remaining in human lung tissue after desorption: after 60 min equilibration with human plasma at 37°C; for retention / tissue binding in human lung tissue (in words): in vitro
Description: Desorption of glucocorticoids to human lung tissue was determined as described earlier. Briefly, lung tissue (1.0 g) was saturated with glucocorticoids for 1 h at 37°C by shaking in 40 mL Krebs-Ringer-HEPES buffer containing 0.3 μg/mL of the respective glucocorticoid. After incubation tissue was washed with 2 mL buffer and transferred into 10.0 mL human plasma (37°C). Again, only glass lab ware was used for these experiments to exclude any non-specific binding effects of the highly lipophilic compounds to plastic material. Samples of 1.0 mL were taken at defined time points. The volume was replaced with fresh plasma at 37°C. Samples were stored at -20°C until further analysis.
as §1, §2

[6] = Binding to human nasal tissue; type: in vitro ADME; conditions: single experiment, tissue pooled from 3 donors; data not shown
[7] = target: T1, human lung glucocorticoid receptor; conditions: from previous experiments of the authors; ref [3]; cited from earlier work
[8] = tested on: glucocorticoid receptor (rat receptor data); parameters: method as in PMID 14718604; conditions: reference dexamethasone = 100, ref [16]; cited from earlier work

SMILES	non-specific binding to glass incubation vials [3]	tissue binding (concentration in human lung tissue) after adsorption [4]	concentration remaining in human lung tissue after desorption [5]	retention / tissue binding in human lung tissue (in words) [5]	further results
CCC(=O)OCC(=O)[C@@]1(OC(=O)CC)[C@@H](C)C[C@H]2[C@@H]3CCC4=CC(=O)C=C[C@]4(C)[C@@]3(Cl)[C@@H](O)C[C@@]21C [BDP, beclomethasone-17, 21-dipropionate]	–	–	–	–	concentration in the supernatant in the absence of dichlorvos (control of enzymatic integrity) ([1]; human lung tissue, absence of dichlorvos, data not shown): rapidly decreased
C[C@@H]1C[C@H]2[C@@H]3CCC4=CC(=O)C=C[C@]4(C)[C@@]3(F)[C@@H](O)C[C@]2(C)[C@@]1(O)C(=O)CO [Dexa, dexamethasone]	–	–	–	–	association rate constant k1 ([2]; [3H]-glucocorticoid): 10.53 ± 0.35 × 10^5 (L/[mol/min]); dissociation rate constant k-1 [2]: 94.67 ± 5.43 × 10^-4 [1/min]
C[C@@H]1C[C@H]2[C@@H]3C[C@H](F)C4=CC(=O)C=C[C@]4(C)[C@@]3(F)[C@@H](O)C[C@]2(C)[C@@]1(OC(=O)c1ccco1)C(=O)SCF [FF, fluticasone furoate]	no non-specific binding; also recorded: No adsorption	4.18 ± 0.16 ng/mg	1.21 ± 0.23 ng/mg	pronounced retention	stability in human lung tissue (in words) ([1]; 0.3 μg/mL, 24 hours, presence and absence of dichlorvos, HPLC of supernatant): no indication of instability or chemical modification; also recorded: non-specific esterase-catalyzed hydrolysis of FF did not occur; also recorded: no degradation or metabolism; time to complete adsorption to human lung tissue ([4]; in vitro, data not shown): about 20 min; binding to human nasal tissue compared with FP [6]: greater binding
CCC(=O)O[C@]1(C(=O)SCF)[C@H](C)C[C@H]2[C@@H]3C[C@H](F)C4=CC(=O)C=C[C@]4(C)[C@@]3(F)[C@@H](O)C[C@@]21C [FP, fluticasone propionate]	no non-specific binding; also recorded: No adsorption	3.39 ± 0.06 ng/mg	1.55 ± 0.13 ng/mg	pronounced retention	association rate constant k1 [7]: 21.17 ± 0.56 × 10^5 (L/[mol/min]); dissociation rate constant k-1 [7]: 10.73 ± 0.65 × 10^-4 [1/min]
C[C@@H]1C[C@H]2[C@@H]3CCC4=CC(=O)C=C[C@]4(C)[C@@]3(Cl)[C@@H](O)C[C@]2(C)[C@@]1(OC(=O)c1ccco1)C(=O)CCl [MF, mometasone furoate]	did not display non-specific binding to glass	3.65 ± 0.15 ng/mg	0.57 ± 0.15 ng/mg	Lowest tissue binding	chemical stability in buffer ([3]; degradation product 9,11-epoxy MF): chemical instability
C[C@]12C=CC(=O)C=C1CC[C@@H]1[C@@H]2[C@@H](O)C[C@@]2(C)[C@H]1C[C@H]1O[C@@H](C3CCCCC3)O[C@]12C(=O)CO [des-Cicle, desisobutyryl-ciclesonide]	–	–	–	–	RRA (relative receptor affinity) [8]: 1212

From article PMC1950704 (Respiratory Research, 2007)
